Each structure is given as a SMILES string. pEC50: −log10 of the molar value.

In one assay the target is T1, human TPO receptor (hTPOR) (Homo sapiens, UniProt P40238).
T1 construct: expressed in transfected cells; host or cells: BaF-B03 (murine IL-3 dependent cell line)
T1 sequence (P40238 26-635): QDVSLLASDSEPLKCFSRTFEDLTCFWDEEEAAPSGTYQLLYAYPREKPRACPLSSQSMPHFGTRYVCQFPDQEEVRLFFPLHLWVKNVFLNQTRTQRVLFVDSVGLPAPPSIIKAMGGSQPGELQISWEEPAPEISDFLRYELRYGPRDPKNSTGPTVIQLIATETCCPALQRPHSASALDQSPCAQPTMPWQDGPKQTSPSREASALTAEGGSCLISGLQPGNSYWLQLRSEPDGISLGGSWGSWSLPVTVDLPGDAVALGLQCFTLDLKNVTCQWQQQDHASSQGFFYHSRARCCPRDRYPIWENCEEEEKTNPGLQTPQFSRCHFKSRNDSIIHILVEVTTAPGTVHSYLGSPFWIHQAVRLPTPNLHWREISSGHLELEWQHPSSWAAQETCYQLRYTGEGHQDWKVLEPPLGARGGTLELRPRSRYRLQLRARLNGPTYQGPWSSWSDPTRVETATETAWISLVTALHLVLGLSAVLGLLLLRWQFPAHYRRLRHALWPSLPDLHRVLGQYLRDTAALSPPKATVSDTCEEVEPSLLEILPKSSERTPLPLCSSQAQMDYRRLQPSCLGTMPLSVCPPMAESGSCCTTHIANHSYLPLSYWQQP
Kind of assay: Thrombopoietic activity: proliferation of TPO dependent BaF/hTPOR cells (WST-1, absorbance at 450 nm). It counts as cell-based. The conditions noted are these: 20 h + 4 h WST-1, ED50 = half concentration of the concentration showing the maximum thrombopoietic activity, Table 1. Summed up:
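Proliferation read-out: WST-1 absorbance at 450 nm after 20 h compound exposure plus 4 h reagent, using IL-3-deprived BaF/hTPOR cells (5×10^4 per well) dependent on human TPO receptor signalling. ED50 defined as half the concentration producing maximal activity.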
Regarding `CC(=Cc1c(F)cc(C(=O)Nc2nc(-c3cccc(CCCOCCCC(C)C)c3F)cs2)cc1F)C(=O)O` [Compound B39, 3-[2,6-difluoro-4-(4-(2-fluoro-3-[3-(4-methylpentyloxy)propyl]phenyl}thiazol-2-ylcarbamoyl)phenyl]-2-methylacrylic acid], the pEC50 was 9.00.
As to `C/C(=C\c1c(F)cc(C(=O)Nc2nc3c(s2)COc2c-3cccc2C(C)C)cc1F)C(=O)O` [Compound A1309, (E)-3-[2,6-difluoro-4-(6-isopropyl-4H-chromeno[4,3-d]thiazol-2-ylcarbamoyl)phenyl]-2-methylacrylic acid], the pEC50 was 7.89.
With `CCCCOC(C)c1cccc(-c2csc(NC(=O)c3cc(Cl)c(C=C(C)C(=O)O)c(Cl)c3)n2)c1F` (centres unmarked) [Compound B98, 3-(4-{4-[3-(1-n-butyloxyethyl)-2-fluorophenyl]thiazol-2-ylcarbamoyl)-2,6-dichlorophenyl]-2-methylacrylic acid], the pEC50 was 9.14.
Same read-out and setting: for `CC(=Cc1c(F)cc(C(=O)Nc2nc3c(s2)CCc2c(CCC(C)(C)C)cccc2-3)cc1F)C(=O)O` [Compound A3, 3-{2,6-difluoro-4-[4,5-dihydro-6-(3,3-dimethylbutyl)naphtho[1,2-d]thiazol-2-ylcabamoyl)phenyl]-2-methylacrylic acid] the value was 8.40; for `CCCCCCCCCC(OC)c1cccc(-c2csc(NC(=O)c3cc(Cl)c(C=C(C)C(=O)O)c(Cl)c3)n2)c1F` (centres unmarked) [Compound B61, 3-(2,6-dichloro-4-{4-[2-fluoro-3-(1-methyloxydecyl)phenyl]thiazol-2-ylcarbamoyl}phenyl)-2-methylacrylic acid], 9.12; for `CCCCCCCCCC(OC)c1cccc(-c2csc(NC(=O)c3cc(Cl)c(/C=C(\C)C(=O)O)c(Cl)c3)n2)c1OC` (centres unmarked) [Compound B1059, (E)-3-(2,6-dichloro-4-{4-[2-methyloxy-3-(1-methyloxydecyl)phenyl]thiazol-2-ylcarbamoyl}phenyl)-2-methylacrylic acid], 8.49.
The same measure, in the same setting: for `CCCOCCCc1cccc(-c2csc(NC(=O)c3cc(F)c(/C=C(\C)C(=O)O)c(F)c3)n2)c1OC` [Compound B380, (E)-3-(2,6-difluoro-4-{4-[2-methyloxy-3-(3-propyloxypropyl)phenyl]thiazol-2-ylcarbamoyl}phenyl)-2-methylacrylic acid] the value was 7.63; for `COc1c(COCCCC2CCCCC2)cccc1-c1csc(NC(=O)c2cc(F)c(/C=C(\C)C(=O)O)c(F)c2)n1` [Compound B397], 8.60.
For the compound `COc1c(COCCCC(C)C)cccc1-c1csc(NC(=O)c2cc(Cl)c(/C=C(\C)C(=O)O)c(Cl)c2)n1` [Compound B1940], the pEC50 was 7.73.
Same read-out and setting: for `CCCCOCCCC(OCCCC)c1cccc(-c2csc(NC(=O)c3cc(F)c(C=C(C)C(=O)O)c(F)c3)n2)c1F` (centres unmarked) [Compound B51, 3-(4-{4-[3-(1,4-dibutyloxybutyl)-2-fluorophenyl]thiazol-2-ylcarbamoyl}-2,6-difluorophenyl)-2-methylacrylic acid] the value was 9.17; for `CCCCCCOCc1cccc(-c2csc(NC(=O)c3cc(Cl)c(/C=C(\OC)C(=O)O)c(Cl)c3)n2)c1OC` [Compound B1994, (Z)-3-{2,6-dichloro-4-[4-(3-hexyloxymethyl-2-methyloxyphenyl)thiazol-2-ylcarbamoyl]phenyl}-2-methyloxyacrylic acid], 7.85.
For the compound `CCCOC(CC)c1cccc(-c2csc(NC(=O)c3cc(Cl)c(C=C(C)C(=O)O)c(Cl)c3)n2)c1F` (centres unmarked) [Compound B81, 3-(2,6-dichloro-4-{4-[2-fluoro-3-(1-n-propyloxypropyl)phenyl]thiazol-2-ylcarbamoyl}phenyl)-2-methylacrylic acid], the pEC50 is 8.86.

The assay is the same for the next values; noted with them: 20 h + 4 h WST-1, ED50 = half concentration of the concentration showing the maximum thrombopoietic activity, Table 2.
On to `COc1c(CCCOCC2CCC2)cccc1-c1csc(NC(=O)c2cc(Cl)c(/C=C(\C)C(=O)O)c(Cl)c2)n1` [Compound B1855, (E)-3-(2,6-dichloro-4-{4-[3-(3-cyclobutylmethyloxypropyl)-2-methyloxyphenyl]thiazol-2-ylcarbamoyl}phenyl)-2-methylacrylic acid], for which the pEC50 was 7.67.
The same measure, in the same setting: for `CCCOCCCc1cccc(-c2csc(NC(=O)c3cc(F)c(/C=C(\C)C(=O)O)c(F)c3)n2)c1OC` [Compound B380, (E)-3-(2,6-difluoro-4-{4-[2-methyloxy-3-(3-propyloxypropyl)phenyl]thiazol-2-ylcarbamoyl}phenyl)-2-methylacrylic acid] the value was 7.63.

By pEC50 is commonly meant the negative decadic logarithm of the EC50, by convention in mol/L.

The values above are taken from patent publication US7601746B2 (Shionogi & Co., Ltd., priority 2003, dated 2009).
